In patent publication US20120225889A1, “USE OF MACROCYCLIC LACTONE DERIVATIVES FOR THE TREATMENT OF INFLAMMATORY DISORDERS” (PIRAMAL LIFE SCIENCES LIMITED, priority 2010, published 2012):
Like-named read-outs stand apart in the source and are kept apart here.

Experiments:
cMyc = assay: Gene expression profile using RTQ-PCR: cMyc; format: cell-based, human; conditions: 3 μM
Description: (§1) The effect of the compound of example 7 was measured in stimulated untreated cells from the monocytic cell line (THP-1), human monocytes and synovial cells from rheumatoid arthritis patient. The effect of the compound in the THP-1 cell line was measured in terms of gene expression and was expressed as fold changes as compared to the cell stimulated control with no drug treatment.
(§2) THP-1 cells, human monocytes and synovial cells were treated with compound of example 7 or vehicle (0.5% DMSO). Total RNA isolation using a commercial RNA extraction kit (Qiagen Corporation, Germany) The first-strand cDNA was synthesized from total RNA using first strand cDNA synthesis kit from Invitrogen Corporation (California, USA). This was followed by real time quantitative polymerase chain reaction (RTQ PCR) using gene specific primers and standard thermal program of initial denaturation at 95° C. for 5 min and cycles of 95° C. for 10 seconds, followed by 60° C. for 30 seconds (Realplex PCR machine from Eppendorf, Germany). Quantitative measurement of products made during PCR cycles was normalized against a housekeeping gene (Actin) and was used to measure the gene expression as fold changes as compared to respective control.

IL-6 = assay: Gene expression profile using RTQ-PCR: IL-6; format: cell-based, human; conditions: 3 μM
Description: as §1, §2

CEBPα = assay: Gene expression profile using RTQ-PCR: CEBPα; format: cell-based, human; conditions: 3 μM
Description: as §1, §2

IFN-γ = assay: Cytokine release assay in hPBMCs: IFN-γ; format: cell-based; conditions: Homo sapiens
Description: (§3) hPBMCs were obtained from healthy donors by centrifugation of heparinized venous blood over Ficoll/Hypaque solution (Histopaque-1077, Sigma, USA). Isolated hPBMCs were suspended in RPMI 1640 culture medium supplemented with 10% FBS and seeded at a density of 50,000 cells/well in a 96-well plate (Nunc, USA). The cells were incubated at 37° C., 5% CO2 for a period of 24 h. These cells were used for the lymphocyte proliferation as well as cytokine release assay.
(§4) The plated cells were treated with different concentrations of the test compound (prepared as mM stock in DMSO and diluted with DMSO to achieve the following final concentrations in the assay: 100, 10, 1, 0.1, 0.01, 0.001, 0.0001, 0.00001 and 0.000001 μM) and incubated for 30 min. The cells were then stimulated with PHA (prepared as 1 mg/mL stock in RPMI 1640 culture medium and used at a final concentration of 5 μg/mL). FK506 was used as a standard. The plates were incubated at 37° C., 5% CO2 for 48 h. The cytokines in the supernatant collected were detected using ELISA kit (BD biosciences, USA). The cytokines evaluated in the assay were TNF-α, IL-2, IL-6, and IFN-γ.

[1] = system: DBA/1J mice with collagen induced arthritis; assay: Collagen-induced arthritis in mice; format: in vivo
Description: The experiment was designed as in reference, J. Experimental Medicine, 162, 637-646 (1985), the disclosure of which is incorporated by reference for the teaching of the experiment.
Male DBA/1J mice with body weight range of 18-22 g, aged 8-10 weeks were immunized with an emulsion equivalent to 200 μg of type II collagen (Elastin products, USA) in Freund's Complete Adjuvant (Sigma, USA), injected intradermally at the base of the tail. The animals were boosted with 200 μg of freshly prepared typeII collagen emulsion emulsified in Freund's Complete Adjuant (Sigma, USA) on day 21. A group of naïve mice was also maintained alongside. Naïve animals are the animals which are neither immunized for induction of arthritis nor do they receive any treatment. This group is maintained to take care of the normal changes in the paw thickness with age.
From day 23, mice were examined daily once for the signs of rheumatoid arthritis, using the articular index and paw thickness as parameters. Articular index scoring was performed employing the following criteria:
• 0: No redness or swelling • 1: Redness, but no swelling • 2: Redness and swelling of the paw • 3: Redness and severe swelling of the paw Hind limbs: Scale 0-4 • 0: No redness or swelling • 1: Redness and mild swelling of paw • 2: Redness and moderate swelling of paw and/or swelling of at least one of the digits • 3: Redness and moderate/severe swelling of paw, swelling of ankle joint and/or swelling of one or more digits • 4: Redness and severe swelling of paw, digits and ankle joint, with joint stiffness Mice with a minimum hind paw score of 2, of even one paw, were inducted into the study. Mice were randomized into the various study groups, each group having at least eight animals, and were administered the vehicle (0.5% CMC, 10 mL/kg p.o. and s.c. twice daily), the test compound (5 mg/kg, p.o. and s.c., twice daily) and standard compound Enbrel (Wyeth Limited, UK), 3 mg/kg, s.c., once daily. The test compound was administered as a suspension in CMC. The requisite quantity of the compound was accurately weighed and was hand-pulverized using pestle-mortar. After mixing with minimum quantity of Tween 80 necessary to wet the compound, requisite quantity of 0.5% CMC solution was added and the compound was ground with CMC till the uniform suspension was obtained. Standard compound ‘Enbrel’ was used as an aqueous solution. The dosing of the compounds was done for 12 continuous days.
The following parameters were observed and recorded daily, • 1. Body weight • 2. Articular index • 3. Paw thickness of hind limbs only, in mm using a tension free calipers • 4. Any significant observation regarding the condition of the animals.
On 13th day morning, 1 h after the compound treatment, the animals were sacrificed, blood withdrawn, and plasma collected for drug level analyses. Also, the hind limbs of all the animals were preserved for histopathological evaluations.

IL-2 = assay: Cytokine release assay in hPBMCs: IL-2; format: cell-based; conditions: Homo sapiens
Description: as §3, §4

GBP-1 = assay: Gene expression profile using RTQ-PCR: GBP-1; format: cell-based, human; conditions: 3 μM, 12 h
Description: as §1, §2

[2] = Human monocytes, 3 h, ± SE, N = 3

Q: For `C/C=C/C(O)C(C)/C=C/C(=N\O)C(C)C(O)C(C)C1OC(=O)/C(OC)=C/C(C)=C/C(C)C(O)C(CC)C(O)C(C)C/C(C)=C/C=C/C1OC` (stereo not shown) [Compound of example 7, (3Z,5E,13E,15E)-18-((5Z,6E,10E)-3,9-Dihydroxy-5-(hydroxymino)-4,8-dimethyldodeca-6,10-dien-2-yl)-9-ethyl-8,10-dihydroxy-3,17-dimethoxy-5,7,11,13-tetramethyl oxacyclooctadeca-3,5,13,15-tetraen-2-one], which cMyc gene expression (cMyc; [2]) is on record?
A: −1.9 + 1.7 log fold change

Q: What about the cMyc gene expression (cMyc; Synovial cells, 12 h, N = 1) of the same compound?
A: −0.5 log fold change

Q: What about the cMyc gene expression (cMyc; THP-1 cells, 12 h, ± SE, N = 3) of the same compound?
A: −1.1 log fold change

Q: What about the IL-6 gene expression (IL-6; [2]) of the same compound?
A: −1.1 + 1.0 log fold change

Q: And the IL-6 gene expression (IL-6; Synovial cells, 12 h, N = 1)?
A: −4.0 log fold change

Q: What about the IL-6 gene expression (IL-6; THP-1 cells, 12 h, ± SE, N = 3) of the same compound?
A: −1.5 + 1.0 log fold change

Q: And the CEBPα gene expression (CEBPα; [2])?
A: −3.9 + 0.4 log fold change

Q: What about the CEBPα gene expression (CEBPα; Synovial cells, 12 h, N = 1) of the same compound?
A: −2.4 log fold change

Q: And the CEBPα gene expression (CEBPα; THP-1 cells, 12 h, ± SE, N = 3)?
A: −2.1 + 2.2 log fold change

Q: And the IC50 (IFN-γ; Table 3: PHA-PMA induced hPBMC's, 48 h, read-out: IFN-γ IC50)?
A: 0.02 µM

Q: What about the IC50 (IFN-γ; Table 4: mitogen stimulated production from hPBMC's, read-out: IFN-γ (IC50 μM)) of the same compound?
A: 0.1 µM

Q: And the severity of arthritis ([1]; 5.0 mg/kg CMC suspension, subcutaneously twice daily, 12 days)?
A: reduced the severity of arthritis

Q: What about the “benefit compared with Enbrel” value ([1]; 5.0 mg/kg s.c. twice daily vs Enbrel 3 mg/kg, s.c., once daily) of the same compound?
A: equal to that achieved with Enbrel treatment

Q: What about the “arthritic changes of joints (histopathology observations)” value ([1]; 5 mg/kg, s.c.) of the same compound?
A: showed protection against arthritic changes with absence of hyperplasia of synovium

Q: And the “Histological score of the section of paws” value ([1]; compound of example 7 5 mg/kg, s.c., n=10, Enbrel 3 mg/kg, s.c., n=6, vehicle control 15.14+1.0)?
A: 3.6+1.54

Q: And the IC50 (IL-2; Table 3: PHA-PMA induced hPBMC's, 48 h, read-out: IL-2 IC50)?
A: 0.005 µM

Q: And the IC50 (IL-2; Table 4: mitogen stimulated production from hPBMC's, read-out: IL-2 (IC50 μM))?
A: 0.007 µM

Q: And the GBP-1 gene expression (GBP-1; Synovial cells, N = 1)?
A: −1.5 log fold change

Q: What about the GBP-1 gene expression (GBP-1; THP-1 cells, ± SE, N = 3) of the same compound?
A: −1.6 + 1.0 log fold change
